Tests used:
velvetleaf = test: Test B pre/postemergence velvetleaf; format: in vivo, Abutilon theophrasti
In short: (§1)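 Response is a visual 0-to-10 score relative to untreated plants, where 0 means no effect and 10 means complete control, taken twelve to sixteen days after application. Treatments went onto soil at planting and onto foliage of 1- to 4-leaf plants, using a surfactant-containing non-phytotoxic solvent.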

morningglory = test: Test B pre/postemergence morningglory; format: in vivo, Ipomoea hederacea
In short: as §1

sugar beet = test: Test B pre/postemergence sugar beet; format: in vivo, Beta vulgaris
In short: as §1

rice = test: Test B flood test rice; format: in vivo, Oryza sativa
In short: (§2)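 Flood test on plants grown to the 2-leaf stage; treated plants kept in greenhouse twelve to sixteen days, then visually rated against controls on a 0 (no effect) to 10 (complete control) scale.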

smallflower flatsedge = test: Test B flood test smallflower flatsedge; format: in vivo, Cyperus difformis
In short: as §2

pigweed = test: Test B pre/postemergence pigweed; format: in vivo, Amaranthus retroflexus
In short: as §1

soybean = test: Test B pre/postemergence soybean; format: in vivo, Glycine max
In short: as §1

cocklebur = test: Test B pre/postemergence cocklebur; format: in vivo, Xanthium strumarium
In short: as §1

rape = test: Test B pre/postemergence rape; format: in vivo, Brassica napus
In short: as §1

duck salad = test: Test B flood test duck salad; format: in vivo, Heteranthera limosa
In short: as §2

purple nutsedge = test: Test B pre/postemergence purple nutsedge; format: in vivo, Cyperus rotundus
In short: as §1

wild oat = test: Test B pre/postemergence wild oat; format: in vivo, Avena fatua
In short: as §1

wheat = test: Test B pre/postemergence wheat; format: in vivo, Triticum aestivum
In short: as §1

giant foxtail = test: Test B pre/postemergence giant foxtail; format: in vivo, Setaria faberii
In short: as §1

crabgrass = test: Test B pre/postemergence crabgrass; format: in vivo, Digitaria sanguinalis
In short: as §1

corn = test: Test B pre/postemergence corn; format: in vivo, Zea mays
In short: as §1

[1] = Postemergence, Rate 62 g/ha, scale 0 to 10, 0 is no effect, 10 is complete control
[2] = Postemergence, Rate 125 g/ha, scale of 0 to 10 where 0 is no effect and 10 is complete control
[3] = Postemergence, Rate 250 g/ha, scale of 0 to 10, 0 is no effect, 10 is complete control
[4] = Postemergence, Rate 500 g/ha, scale of 0 to 10 where 0 is no effect and 10 is complete control
[5] = Preemergence, Rate 62 g/ha, scale 0 to 10 (0 no effect, 10 complete control)
[6] = Preemergence, Rate 125 g/ha, scale of 0 to 10 where 0 is no effect and 10 is complete control
[7] = Preemergence, Rate 250 g/ha, scale 0 to 10 (0 no effect, 10 complete control)
[8] = Preemergence, Rate 500 g/ha, scale of 0 to 10 where 0 is no effect and 10 is complete control
[9] = Rate 62 g/ha, flood test species, Pre-emergence, visual evaluation after twelve to sixteen days
[10] = Rate 125 g/ha, under heading Pre-emergence, flood test species, visual evaluation after twelve to sixteen days
[11] = Rate 250 g/ha, Pre-emergence (flood test species), scale 0 to 10, 0 is no effect, 10 is complete control
[12] = Rate 500 g/ha, Pre-emergence section of Table B, 0 to 10 scale (0 no effect, 10 complete control)

## CCOC(=O)CC(C(=O)OCC)n1c(=O)on(C(=O)N(c2ccc(F)cc2)C(C)C)c1=O (stereo not drawn) [Compound 615]
velvetleaf; [1]
  Plant response rating, Velvetleaf: 0
velvetleaf; [2]
  Plant response rating, Velvetleaf: 0
velvetleaf; [3]
  Velvetleaf plant response rating: 0
velvetleaf; [4]
  Plant response rating, Velvetleaf: 0
velvetleaf; [5]
  Velvetleaf plant response rating: 0
velvetleaf; [6]
  Velvetleaf plant response rating: 0
velvetleaf; [7]
  Plant response rating, Velvetleaf: 0
velvetleaf; [8]
  Plant response rating, Velvetleaf: 0
morningglory; [1]
  Plant response rating, Morningglory: 0
morningglory; [2]
  Plant response rating, Morningglory: 1
morningglory; [3]
  Morningglory plant response rating: 1
morningglory; [4]
  Plant response rating, Morningglory: 1
morningglory; [5]
  Morningglory plant response rating: 0
morningglory; [6]
  Morningglory plant response rating: 0
morningglory; [7]
  Plant response rating, Morningglory: 0
morningglory; [8]
  Plant response rating, Morningglory: 0
Sugar beet; [1]
  Plant response rating, Sugarbeets: 0
Sugar beet; [2]
  Plant response rating, Sugarbeets: 0
Sugar beet; [3]
  Sugarbeets plant response rating: 0
Sugar beet; [4]
  Plant response rating, Sugarbeets: 0
Sugar beet; [5]
  Sugarbeets plant response rating: 0
Sugar beet; [6]
  Sugarbeets plant response rating: 0
Sugar beet; [7]
  Plant response rating, Sugarbeets: 0
Sugar beet; [8]
  Plant response rating, Sugarbeets: 6
rice; [9]
  Plant response rating, Rice (0 to 10 scale, 0 is no effect, 10 is complete control): 0
rice; [10]
  Rice plant response rating (0 to 10 scale, 0 is no effect, 10 is complete control): 0
rice; [11]
  Rice plant response rating: 0
rice; [12]
  Rice plant response rating: 0
Smallflower flatsedge; [9]
  Plant response rating, S. Flatsedge (0 to 10 scale, 0 is no effect, 10 is complete control): 0
Smallflower flatsedge; [10]
  S. Flatsedge plant response rating (0 to 10 scale, 0 is no effect, 10 is complete control): 0
Smallflower flatsedge; [11]
  S. Flatsedge plant response rating: 0
Smallflower flatsedge; [12]
  S. Flatsedge plant response rating: 0
pigweed; [1]
  Plant response rating, Redroot pigweed: 0
pigweed; [2]
  Plant response rating, Redroot pigweed: 0
pigweed; [3]
  Redroot pigweed plant response rating: 0
pigweed; [4]
  Plant response rating, Redroot pigweed: 0
pigweed; [5]
  Redroot pigweed plant response rating: 0
pigweed; [6]
  Redroot pigweed plant response rating: 0
pigweed; [7]
  Plant response rating, Redroot pigweed: 0
pigweed; [8]
  Plant response rating, Redroot pigweed: 4
soybean; [1]
  Plant response rating, Soybean: 1
soybean; [2]
  Plant response rating, Soybean: 1
soybean; [3]
  Soybean plant response rating: 3
soybean; [4]
  Plant response rating, Soybean: 3
soybean; [5]
  Soybean plant response rating: 0
soybean; [6]
  Soybean plant response rating: 0
soybean; [7]
  Plant response rating, Soybean: 0
soybean; [8]
  Plant response rating, Soybean: 0
cocklebur; [1]
  Plant response rating, Cocklebur: 0
cocklebur; [2]
  Plant response rating, Cocklebur: 0
cocklebur; [3]
  Cocklebur plant response rating: 0
cocklebur; [4]
  Plant response rating, Cocklebur: 0
cocklebur; [5]
  Cocklebur plant response rating: 0
cocklebur; [6]
  Cocklebur plant response rating: 0
cocklebur; [7]
  Plant response rating, Cocklebur: 0
cocklebur; [8]
  Plant response rating, Cocklebur: 0
rape; [1]
  Plant response rating, Rape: 0
rape; [2]
  Plant response rating, Rape: 0
rape; [3]
  Rape plant response rating: 0
rape; [4]
  Plant response rating, Rape: 0
rape; [5]
  Rape plant response rating: 0
rape; [6]
  Rape plant response rating: 0
rape; [7]
  Plant response rating, Rape: 0
rape; [8]
  Plant response rating, Rape: 0
Duck salad; [9]
  Plant response rating, Ducksalad (0 to 10 scale, 0 is no effect, 10 is complete control): 0
Duck salad; [10]
  Ducksalad plant response rating (0 to 10 scale, 0 is no effect, 10 is complete control): 0
Duck salad; [11]
  Ducksalad plant response rating: 0
Duck salad; [12]
  Ducksalad plant response rating: 0
Purple nutsedge; [1]
  Plant response rating, Nutsedge: 0
Purple nutsedge; [2]
  Plant response rating, Nutsedge: 0
Purple nutsedge; [3]
  Nutsedge plant response rating: 0
Purple nutsedge; [5]
  Nutsedge plant response rating: 0
Purple nutsedge; [6]
  Nutsedge plant response rating: 0
Purple nutsedge; [7]
  Plant response rating, Nutsedge: 0
Purple nutsedge; [8]
  Plant response rating, Nutsedge: 0
Wild oat; [1]
  Plant response rating, Wild oats: 0
Wild oat; [2]
  Plant response rating, Wild oats: 0
Wild oat; [3]
  Wild oats plant response rating: 0
Wild oat; [4]
  Plant response rating, Wild oats: 0
Wild oat; [5]
  Wild oats plant response rating: 0
Wild oat; [6]
  Wild oats plant response rating: 0
Wild oat; [7]
  Plant response rating, Wild oats: 0
Wild oat; [8]
  Plant response rating, Wild oats: 0
wheat; [1]
  Plant response rating, Wheat: 0
wheat; [2]
  Plant response rating, Wheat: 0
wheat; [3]
  Wheat plant response rating: 0
wheat; [4]
  Plant response rating, Wheat: 0
wheat; [5]
  Wheat plant response rating: 0
wheat; [6]
  Wheat plant response rating: 0
wheat; [7]
  Plant response rating, Wheat: 0
wheat; [8]
  Plant response rating, Wheat: 0
Giant foxtail; [1]
  Plant response rating, Giant foxtail: 0
Giant foxtail; [2]
  Plant response rating, Giant foxtail: 0
Giant foxtail; [3]
  Giant foxtail plant response rating: 6
Giant foxtail; [4]
  Plant response rating, Giant foxtail: 6
Giant foxtail; [5]
  Giant foxtail plant response rating: 0
Giant foxtail; [6]
  Giant foxtail plant response rating: 0
Giant foxtail; [7]
  Plant response rating, Giant foxtail: 0
Giant foxtail; [8]
  Plant response rating, Giant foxtail: 7
crabgrass; [1]
  Plant response rating, Crabgrass: 0
crabgrass; [2]
  Plant response rating, Crabgrass: 0
crabgrass; [3]
  Crabgrass plant response rating: 4
crabgrass; [5]
  Crabgrass plant response rating: 0
crabgrass; [6]
  Crabgrass plant response rating: 0
crabgrass; [7]
  Plant response rating, Crabgrass: 0
crabgrass; [8]
  Plant response rating, Crabgrass: 0
corn; [1]
  Plant response rating, Corn: 0
corn; [2]
  Plant response rating, Corn: 0
corn; [3]
  Corn plant response rating: 0
corn; [4]
  Plant response rating, Corn: 0
corn; [5]
  Corn plant response rating: 0
corn; [6]
  Corn plant response rating: 0
corn; [7]
  Plant response rating, Corn: 0
corn; [8]
  Plant response rating, Corn: 0

— patent publication US6737383B1, “Herbicidal oxadiazolidines” (priority 1999, dated 2004)
